Measured values published in US10800791B2, “Triazole ACC inhibitors and uses thereof” (Gilead Apollo, LLC, priority 2015, dated 2020).
Values after ≈ are worked out from the molar mass of the structure shown. Like-named read-outs stand apart in the source and are kept apart here.

Assays:
Botrtyis cinerea (Bc) = assay: Growth inhibition assay of fungal pathogens, Bc; format: cell-based; settings: 48 h
How it was run: (§1)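 Pathogen growth in 17% V8 broth is measured by OD600 at 24 and 48 hours, after blank subtraction, in the presence of compound at 50, 10 and 2 ppm or 2, 0.4 and 0.08 ppm. Inhibition in percent comes from 48-hour readings against the DMSO control.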

Diplodia maydis (Dm) = assay: Growth inhibition assay of fungal pathogens, Dm; format: cell-based; settings: Stenocarpella maydis, 48 h
How it was run: as §1

C. albicans = assay: Antifungal Activity Assay (broth microtiter MIC), C. albicans; format: cell-based, Candida albicans; settings: Candida albicans, ATCC90028, 48 h
How it was run: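 Endpoint: lowest concentration visibly inhibiting growth relative to control after 48 h. Inoculum of 2.5×10^3 CFU/mL final in RPMI 1640+MOPS, prepared from overnight 35° C agar cultures; test compounds diluted in water to 128 μg/mL before plating.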

[1] = Botrtyis cinerea, growth inhibition at 48 hours vs 2% DMSO control, read-out: Concentration at 90% Inhibition Bc
[2] = Botrtyis cinerea, growth inhibition vs 2% DMSO control at 48 hours, read-out: Concentration at 90% Inhibition Bc
[3] = Diplodia maydis, growth inhibition at 48 hours vs 2% DMSO control, read-out: Concentration at 90% Inhibition Dm
[4] = Diplodia maydis, growth inhibition vs 2% DMSO control at 48 hours, read-out: Concentration at 90% Inhibition Dm
[5] = Table 3a, ATCC 90028, 3 replicates, MIC recorded at 48 h, read-out: MIC, C. albicans ATCC 90028
[6] = Table 3b (additional results), ATCC 90028, 3 replicates, MIC recorded at 48 h, read-out: MIC, C. albicans ATCC 90028

Row | SMILES | IC90 (Botrtyis cinerea (Bc); [1]) [µg/mL] | IC90 (Botrtyis cinerea (Bc); [2]) [µg/mL] | IC90 (Diplodia maydis (Dm); [3]) [µg/mL] | IC90 (Diplodia maydis (Dm); [4]) [µg/mL] | MIC (C. albicans; [5]) [µg/mL] | MIC (C. albicans; [6]) [µg/mL] | IC90 (Botrtyis cinerea (Bc); read-out: Concentration at 90% Inhibition Bc, Botrtyis cinerea, growth inhibition at 48 hours vs 2% DMSO control) [µg/mL] | IC90 (Botrtyis cinerea (Bc); read-out: Concentration at 90% Inhibition Bc, Botrtyis cinerea, growth inhibition vs 2% DMSO control at 48 hours) [µg/mL] | IC90 (Diplodia maydis (Dm); read-out: Concentration at 90% Inhibition Dm, Diplodia maydis, growth inhibition at 48 hours vs 2% DMSO control) [µg/mL] | IC90 (Diplodia maydis (Dm); read-out: Concentration at 90% Inhibition Dm, Diplodia maydis, growth inhibition vs 2% DMSO control at 48 hours) [µg/mL] | MIC (C. albicans; read-out: MIC, C. albicans ATCC 90028, Table 3a, 3 replicates, MIC recorded at 48 h) [µg/mL] | MIC (C. albicans; read-out: MIC, C. albicans ATCC 90028, Table 3b (additional results), 3 replicates, MIC recorded at 48 h) [µg/mL]
1 | COc1ccc(F)cc1[C@H](Cn1c(=O)n([C@@H](C)C(=O)NC2CCC2)c(=O)c2c(C)c(-n3nccn3)sc21)OCCO [Compound I-77, (S)—N-cyclobutyl-2-(1-((R)-2-(5-fluoro-2-methoxyphenyl)-2-(2-hydroxyethoxy)ethyl)-5-methyl-2,4-dioxo-6-(2H-1,2,3-triazol-2-yl)-1,4-dihydrothieno[2,3-d]pyrimidin-3(2H)-yl)propanamide] | 0.4 (≈ 0.682 µM) | 0.4 (≈ 0.682 µM) | 2 (≈ 3.41 µM) | 2 (≈ 3.41 µM) | 1.1 to 2 (≈ 1.88 to 3.41 µM) | 2.01 to 4 (≈ 3.43 to 6.82 µM) |  |  |  |  |  | 
2 | COc1ccc(F)cc1[C@H](Cn1c(=O)n(C(C)(C)C(=O)N2CCCCC2)c(=O)c2c(C)c(-n3nccn3)sc21)OC1CCC(=O)CC1 [Compound I-34, (R)-1-(2-(5-fluoro-2-methoxyphenyl)-2-((4-oxocyclohexyl)oxy)ethyl)-5-methyl-3-(2-methyl-1-oxo-1-(piperidin-1-yl)propan-2-yl)-6-(2H-1,2,3-triazol-2-yl)thieno[2,3-d]pyrimidine-2,4(1H,3H)-dione] |  |  |  |  |  |  | 0.4 (≈ 0.6 µM) | 0.4 (≈ 0.6 µM) | 2 (≈ 3 µM) | 2 (≈ 3 µM) | 0.25 to 1 (≈ 0.375 to 1.5 µM) | 0.25 to 1 (≈ 0.375 to 1.5 µM)
3 | COc1ccc(F)cc1[C@H](Cn1c(=O)n(C(C)(C)C(N)=O)c(=O)c2c(C)c(-n3nccn3)sc21)OC(C)C [Compound I-2, (R)-2-(1-(2-(5-fluoro-2-methoxyphenyl)-2-isopropoxyethyl)-5-methyl-2,4-dioxo-6-(2H-1,2,3-triazol-2-yl)-1,4-dihydrothieno[2,3-d]pyrimidin-3(2H)-yl)-2-methylpropanamide] | 2 (≈ 3.67 µM) | 2 (≈ 3.67 µM) | 2 (≈ 3.67 µM) | 2 (≈ 3.67 µM) | 2.1 to 4 (≈ 3.86 to 7.34 µM) | 1.01 to 2 (≈ 1.85 to 3.67 µM) |  |  |  |  |  | 
4 | COc1ccc(F)cc1[C@H](Cn1c(=O)n(C(C)(C)C(N)=O)c(=O)c2c(C)c(-n3nccn3)sc21)OCC(C)C [Compound I-8, (R)-2-(1-(2-(5-fluoro-2-methoxyphenyl)-2-isobutoxyethyl)-5-methyl-2,4-dioxo-6-(2H-1,2,3-triazol-2-yl)-1,4-dihydrothieno[2,3-d]pyrimidin-3(2H)-yl)-2-methylpropanamide] | 2 (≈ 3.58 µM) | 2 (≈ 3.58 µM) | 2 (≈ 3.58 µM) | 2 (≈ 3.58 µM) | 1.1 to 2 (≈ 1.97 to 3.58 µM) | 1.01 to 2 (≈ 1.81 to 3.58 µM) |  |  |  |  |  | 
5 | Cc1c(-n2nccn2)sc2c1c(=O)n(C(C)(C)C(=O)NC(C)C)c(=O)n2C[C@H](OC(C)C)c1cc(F)ccc1OCCO [Compound I-53, (R)-2-(1-(2-(5-fluoro-2-(2-hydroxyethoxy)phenyl)-2-isopropoxyethyl)-5-methyl-2,4-dioxo-6-(2H-1,2,3-triazol-2-yl)-1,4-dihydrothieno[2,3-d]pyrimidin-3(2H)-yl)-N-isopropyl-2-methylpropanamide] | 0.4 (≈ 0.649 µM) | 0.4 (≈ 0.649 µM) | 0.4 (≈ 0.649 µM) | 0.4 (≈ 0.649 µM) | 0.25 to 1 (≈ 0.405 to 1.62 µM) | 0.25 to 1 (≈ 0.405 to 1.62 µM) |  |  |  |  |  | 
6 | COc1ccc(F)cc1[C@H](Cn1c(=O)n(C(C)(C)C(N)=O)c(=O)c2c(C)c(-n3nccn3)sc21)OC1CCC(=O)CC1 [Compound I-31, (R)-2-(1-(2-(5-fluoro-2-methoxyphenyl)-2-((4-oxocyclo-hexyl)oxy)ethyl)-5-methyl-2,4-dioxo-6-(2H-1,2,3-triazol-2-yl)-1,4-dihydrothieno[2,3-d]pyrimidin-3(2H)-yl)-2-methylpropanamide] | 0.4 (≈ 0.668 µM) | 0.4 (≈ 0.668 µM) | 2 (≈ 3.34 µM) | 10 (≈ 16.7 µM) | 0.25 to 1 (≈ 0.418 to 1.67 µM) | 0.25 to 1 (≈ 0.418 to 1.67 µM) |  |  |  |  |  | 
7 | COc1ccc(F)cc1[C@H](Cn1c(=O)n(C(C)(C)C(=O)NC(C)C)c(=O)c2c(C)c(-n3nccn3)sc21)OCCC(N)=O [Compound I-90, (R)-2-(1-(2-(3-amino-3-oxopropoxy)-2-(5-fluoro-2-metho-xyphenyl)ethyl)-5-methyl-2,4-dioxo-6-(2H-1,2,3-triazol-2-yl)-1,4-dihydro-thieno[2,3-d]pyrimidin-3(2H)-yl)-N-isopropyl-2-methylpropanamide] | 2 (≈ 3.25 µM) | 2 (≈ 3.25 µM) | > 50 | > 50 | 2.1 to 4 (≈ 3.41 to 6.5 µM) | 0.25 to 1 (≈ 0.406 to 1.62 µM) |  |  |  |  |  | 
8 | COc1ccc(F)cc1[C@H](Cn1c(=O)n([C@@H](C)C(=O)N(C)C(C)C)c(=O)c2c(C)c(-n3nccn3)sc21)OCCO [Compound I-78, (S)-2-(1-((R)-2-(5-fluoro-2-methoxyphenyl)-2-(2-hydroxy-ethoxy)ethyl)-5-methyl-2,4-dioxo-6-(2H-1,2,3-triazol-2-yl)-1,4-dihydrothieno[2,3-d]pyrimidin-3(2H)-yl)-N-isopropyl-N-methylpropanamide] | 0.4 (≈ 0.68 µM) | 0.4 (≈ 0.68 µM) | 2 (≈ 3.4 µM) | 2 (≈ 3.4 µM) | 2.1 to 4 (≈ 3.57 to 6.8 µM) | 1.01 to 2 (≈ 1.72 to 3.4 µM) |  |  |  |  |  | 
